Data as given in ChEMBL document CHEMBL1123599, “Diketopiperazines as a new class of platelet-activating factor inhibitors” (J Med Chem, 1987).

Organism: Oryctolagus cuniculus
Assay: Inhibition of rabbit platelet aggregation induced by PAF (Platelet activating factor)
Format: functional

Compound | IC50
CSCC[C@H]1NC(=O)[C@@H]([C@H](C)c2cccc3ccccc23)NC1=O | 180 nM
CSC[C@@H]1N=C(C2=C(O)C=CC2)[C@H]([C@@H](C)[C@@H]2C(=O)N(C)c3ccccc32)NC1=O | 370 nM
COc1cc([C@H]2CC[C@H](c3cc(OC)c(OC)c(OC)c3)O2)cc(OC)c1OC | 320 nM
CSC[C@H]1NC(=O)[C@H](Cc2cn(C)c3ccccc23)NC1=O | 140000 nM
CSCCC1NC(=O)C(Cc2cn(C)c3ccccc23)NC1=O (stereo unspecified) | 2300 nM
CSC[C@@H]1NC(=O)[C@H](Cc2cn(C)c3ccccc23)NC1=O | 250000 nM
CSCC[C@H]1NC(=O)[C@@H]([C@@H](C)c2cn(C)c3ccccc23)NC1=O | 3600 nM
CSCC[C@H]1NC(=O)[C@@H]([C@@H](C)c2cccc3ccccc23)NC1=O | 1900 nM
CSC[C@@H]1NC(=O)[C@@H](Cc2cn(C)c3ccccc23)NC1=O | 36000 nM
CSCC[C@H]1NC(=O)[C@@H]([C@H](C)c2cn(C)c3ccccc23)NC1=O | 700 nM
CSC[C@H]1NC(=O)[C@@H](Cc2cn(C)c3ccccc23)NC1=O | 7900 nM
